According to the supplement of paper PMC8671470:

Columns and labels:
Details in all cases: 72 h
BV-173 = tested on: BV-173
In short: (§1)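 Dose–response data were fitted with a four-parameter log-logistic model. They came from fifteen myeloid leukaemia lines treated in duplicate with five tenfold doses from 1 to 10,000 nM for 72 h at 37 °C with 5% CO2, with ATP viability normalised to vehicle and to a positive control at 10 µM. The IC50 was derived from these fits.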

ML-2 = tested on: ML-2
In short: as §1

MOLM-13 = tested on: MOLM-13
In short: as §1

LAMA-84 = tested on: LAMA-84
In short: as §1

KG-1 = tested on: KG-1
In short: as §1

KCL-22 = tested on: KCL-22
In short: as §1

HL-60 [1] = tested on: HL-60
In short: as §1

HEL = tested on: HEL
In short: as §1

THP-1 = tested on: THP-1
In short: as §1

SHI-1 = tested on: SHI-1
In short: as §1

HL-60 [2] = assay: area under dose-response curve (viability, 1 nM-10 uM) (fraction (0-1)); higher = more sensitive
In short: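 In 384-well plates, the full library was rescreened in duplicate on HL-60 cells in RPMI 1640 with 10% FBS, at 1–10,000 nM in five tenfold concentrations, for 72 h at 37 °C, 5% CO2. Each run also held DMSO or 100 nM of one of three metabolic inhibitors. Viability was measured by CellTiter-Glo and normalised to DMSO wells and to wells with proteasome inhibitor, present at 10 μM. Any area under the curve comes from four-parameter log-logistic fitting with drc and PharmacoGx.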

[3] = co-treatment: GSK2194069 100 nM
[4] = co-treatment: pictilisib 100 nM

| Compound | IC50 (cell viability) (BV-173) [µM] | IC50 (cell viability) (ML-2) [µM] | IC50 (cell viability) (MOLM-13) [µM] | IC50 (cell viability) (LAMA-84) [µM] | IC50 (cell viability) (KG-1) [µM] | IC50 (cell viability) (KCL-22) [µM] | IC50 (cell viability) (HL-60 [1]) [µM] | IC50 (cell viability) (HEL) [µM] | IC50 (cell viability) (THP-1) [µM] | IC50 (cell viability) (SHI-1) [µM] | area under dose-response curve (HL-60 [2]; co-treatment: AZD3965 100 nM) | area under dose-response curve (HL-60 [2]; co-treatment: DMSO vehicle) | area under dose-response curve (HL-60 [2]; [3]) | area under dose-response curve (HL-60 [2]; [4]) |
| --- | --- | --- | --- | --- | --- | --- | --- | --- | --- | --- | --- | --- | --- | --- |
| CC(C)c1cc2c(c(O)c1O)[C@@]1(C(=O)O)CCCC(C)(C)[C@@H]1CC2 [Carnosic acid] | 5.01 | > 10 | > 10 | > 10 | > 10 | > 10 | > 10 | > 10 | > 10 | > 10 | < 0.0301 | < 0.0301 | < 0.0301 | < 0.0301 |
| COc1ccc(C(=O)Nc2c(Cl)cncc2Cl)cc1OC1CCCC1 [Piclamilast] | > 10 | > 10 | > 10 | > 10 | > 10 | > 10 | > 10 | > 10 | > 10 | > 10 | < 0.0301 | < 0.0301 | < 0.0301 | < 0.0301 |
| N/C(=N\CCCC(N)C(=O)O)N[N+](=O)[O-] [L-NNA] | > 10 | > 10 | > 10 | > 10 | > 10 | > 10 | > 10 | > 10 | > 10 | > 10 | < 0.0301 | < 0.0301 | < 0.0301 | < 0.0301 |
| CN(C)c1cc(NC(=O)CNC(C)(C)C)c(O)c2c1C[C@H]1C[C@H]3[C@H](N(C)C)C(=O)C(C(N)=O)C(=O)[C@@]3(O)C(=O)C1C2=O (some centres undefined) [Tigecycline] | > 10 | > 10 | > 10 | > 10 | > 10 | > 10 | > 10 | > 10 | > 10 | > 10 | < 0.0301 | < 0.0301 | < 0.0301 | < 0.0301 |
| CCCCCCCCCCC[C@@H](C[C@@H]1OC(=O)[C@H]1CCCCCC)OC(=O)[C@H](CC(C)C)NC=O [Orlistat] | > 10 | > 10 | > 10 | > 10 | > 10 | > 10 | > 10 | > 10 | > 10 | > 10 | < 0.0301 | < 0.0301 | 0.0449 | < 0.0301 |
| CN(C)C(=O)[C@H](O)[C@H](Cc1ccccc1)NC(=O)c1cc2cc(Cl)ccc2[nH]1 | > 10 | > 10 | > 10 | > 10 | > 10 | > 10 | > 10 | > 10 | > 10 | > 10 | < 0.0301 | < 0.0301 | < 0.0301 | < 0.0301 |
| Cc1cn([C@H]2C[C@H](O)[C@@H](COP(=O)(O)OP(=O)(O)O)O2)c(=O)[nH]c1=O [Thymidine diphosphate] | 4.03 | > 10 | > 10 | > 10 | > 10 | > 10 | > 10 | > 10 | > 10 | > 10 | < 0.0301 | < 0.0301 | < 0.0301 | < 0.0301 |
| Nc1ccccc1C(=O)C[C@H](N)C(=O)O [L-Kynurenine] | > 10 | > 10 | > 10 | > 10 | > 10 | > 10 | > 10 | > 10 | > 10 | > 10 | < 0.0301 | < 0.0301 | < 0.0301 | < 0.0301 |
| O[C@H]1[C@H]2[C@H](O)CCCN2C[C@H]1O [Swainsonine] | > 10 | > 10 | > 10 | > 10 | > 10 | > 10 | > 10 | > 10 | > 10 | > 10 | < 0.0301 | < 0.0301 | < 0.0301 | < 0.0301 |
| O=C(O)c1cc(Cl)cc(Cl)c1O [3,5-Dichlorosalicylic Acid] | > 10 | > 10 | > 10 | > 10 | > 10 | > 10 | > 10 | > 10 | > 10 | > 10 | < 0.0301 | < 0.0301 | < 0.0301 | < 0.0301 |
| Cc1ccccc1C(C(=O)NC1CCCCC1)N(C(=O)Cn1ccnc1C)c1cccc(F)c1 (centres undefined) [AGI-5198] | > 10 | > 10 | > 10 | > 10 | > 10 | > 10 | > 10 | > 10 | > 10 | > 10 | < 0.0301 | < 0.0301 | < 0.0301 | < 0.0301 |
| O=c1cc(-c2ccccc2)oc2cc(O)c(O)c(O)c12 [Baicalein] | > 10 | 8.18 | > 10 | > 10 | 6.35 | > 10 | 4.39 | > 10 | > 10 | > 10 | < 0.0301 | < 0.0301 | < 0.0301 | < 0.0301 |
| O=C(O)C(=O)CBr [3-bromopyruvic acid] | > 10 | > 10 | > 10 | > 10 | > 10 | > 10 | > 10 | > 10 | > 10 | > 10 | < 0.0301 | < 0.0301 | < 0.0301 | < 0.0301 |
| CCCCCCCCCCCC(=O)c1c(O)c(C(=O)CCCCCCCCCCC)c(O)c(C2CC(c3ccc(O)cc3)Oc3cc(O)ccc32)c1O (centres undefined) | > 10 | > 10 | > 10 | > 10 | > 10 | > 10 | > 10 | > 10 | > 10 | > 10 |  |  |  |  |
| C[C@](N)(Cc1ccc(O)cc1)C(=O)O [Metirosine] | > 10 | > 10 | > 10 | > 10 | > 10 | > 10 | > 10 | > 10 | > 10 | > 10 | < 0.0301 | < 0.0301 | < 0.0301 | < 0.0301 |
| NCCCC(N)(C(=O)O)C(F)F (centres undefined) [Difluoromethylornithine] | > 10 | > 10 | > 10 | > 10 | > 10 | > 10 | > 10 | > 10 | > 10 | > 10 | < 0.0301 | < 0.0301 | < 0.0301 | < 0.0301 |
| O=C1O[C@H]([C@@H](O)CO)C(O)=C1O [Vitamin C (ascorbate)] | > 10 | > 10 | > 10 | > 10 | > 10 | > 10 | > 10 | > 10 | > 10 | > 10 |  |  |  |  |
| CC(C)c1onc(-c2c(Cl)cccc2Cl)c1COc1ccc(/C=C/c2cccc(C(=O)O)c2)c(Cl)c1 [GW4064] | 6.11 | > 10 | 2.34 | 4.27 | 8.29 | 3.6 | > 10 | > 10 | > 10 | > 10 | < 0.0301 | < 0.0301 |  | < 0.0301 |
| CC(C)c1nc(CN(C)C(=O)N[C@H](C(=O)N[C@@H](Cc2ccccc2)C[C@H](O)[C@H](Cc2ccccc2)NC(=O)OCc2cncs2)C(C)C)cs1 [Ritonavir] | 6.62 | > 10 | > 10 | > 10 | > 10 | > 10 | > 10 | > 10 | > 10 | > 10 | < 0.0301 | < 0.0301 |  | < 0.0301 |
| COc1ccc2c(C(=S)N(C)CC(=O)O)cccc2c1C(F)(F)F [Tolrestat] | > 10 | > 10 | > 10 | > 10 | > 10 | > 10 | > 10 | > 10 | > 10 | > 10 | < 0.0301 | < 0.0301 | < 0.0301 | < 0.0301 |
| CC[C@H](C)C(=O)O[C@H]1C[C@@H](C)C=C2C=C[C@H](C)[C@H](CC[C@@H]3C[C@@H](O)CC(=O)O3)[C@H]21 [Lovastatin] | > 10 | > 10 | > 10 | > 10 | > 10 | > 10 | > 10 | > 10 | > 10 | > 10 | < 0.0301 | < 0.0301 | < 0.0301 | 0.0554 |
